Entries after “also recorded” stand apart in the source; their conditions may differ.
Tests used:
[1] = tested on: RhlR activity, P. aeruginosa PAO1/prhII-LVAgfp; test: Rhl QS reporter assay (GFP fluorescence); type: cell-based, Pseudomonas aeruginosa; conditions: for RhlR activity: at 1-10× IC50 values for biofilm inhibition; for inhibition of Rhl-QS system: fluorescence dose curves, 12 and 24 h
Method: As introduced above, the role of QS in biofilm formation is well documented and therefore the abilities of 7 and 21 to inhibit QS in P. aeruginosa were evaluated. For this purpose, two wild-type P. aeruginosa QS reporter strains were prepared that contain the plasmids plasI-LVAgfp and prhII-LVAgfp. (see: The Examples) These strains report the activity of two intracellular QS receptors in P. aeruginosa (LasR and RhlR) by the production of green fluorescent protein (gfp), allowing for LasR and RhlR activities, and thus QS levels, to be quantified by fluorescence. […] Studies of related 2-ABI derivatives have shown that this class of molecules is bacterial cell permeable, allowing us to surmise that 7 and 21 could act on the Las and Rhl systems intracellularly. […] The precise targets of 7 and 21 that result in QS disruption are not yet known.
To evaluate the activity of compounds 7 and 21 on QS in P. aeruginosa, we prepared two P. aeruginosa QS reporter strains: PAO1/plasI-LVAgfp and PAO1/prhII-LVAgfp. These strains contain the reporter plasmids plasI-LVAgfp and prhII-LVAgfp, respectively, which contain the laslI or rhII promoter sequences fused to LVAgfp. Binding of activated LasR or RhlR to these promoters induces GFP production, which can be quantified by fluorescence and is proportional to the level of LasR or RhlR activation. LVAgfp is an unstable form of GFP with an estimated half-life of 40-60 min, which allows for a more real-time analysis of gene expression (wild-type GFP has a half-life of greater than 1 day). Further, this specific GFP is the variant GFPmut3b that has a shifted excitation maximum near 501 nm (wild-type GFP has an excitation maximum near 395 nm); emission maximum is similar to wild-type GFP at 511 nm (wild-type GFP has emission maximum near 508 nm). Utilizing this GFP variant is key to detection over native fluorescent pigments that are produced in P. aeruginosa and excite near 400 nm and emit near 500 nm. Preparation and analysis of the PAO1/plasI-LVAgfp and PAO1/prhII-LVAgfp reporters are outlined below.
Compounds 7 and 21 were evaluated for their ability to modulate the Las and Rhl systems using the P. aeruginosa PAO1/plasI-LVAgfp and PAO1/prhII-LVAgfp reporters. We used the same exact setup as the static biofilm assay in 96-well microtiter plates for P. aeruginosa with the exception that freezer stocks were streaked on LB/agar with 300 μg/mL Carb. Microtiter plates were prepared similar to dose-response analysis such that final well concentrations upon inoculum addition ranged from 10^x μM where x=3.5, 3, 2.5, 2, 1.5, 1, 0, −1, or −2. Measurements of FL500/540 and OD600 were made at 12 and 24 h, and after 24 h the samples were evaluated for biofilm formation using the CV procedure. […]

P. aeruginosa biofilm = test: effects of metals on biofilm inhibition; type: cell-based, Pseudomonas aeruginosa; conditions: compound at 250 μM; Cu(II)SO4, Fe(II)SO4, Fe(III)Cl3, Zn(II)SO4 up to 1000 μM; 24 h
Method: Microtiter plates were first prepared by adding 50 μL aliquots of a 1 mM EtOH stock solution of 7 to each well in order to effect a final well concentration upon inoculum addition of 250 μM; this concentration was chosen as it is approximately the minimum concentration of 7 showing maximal biofilm inhibition. The EtOH was then removed by drying at 37° C., and the plates were sterilized. Directly prior to inoculation, 100 mM stock solutions of metals were freshly prepared in 18 MΩ H2O and diluted in series in a polypropylene 96-well microtiter plate (Costar 3879) to achieve stocks with the following concentrations: 100, 75, 50, 25, 12.5, 6.25, 1.25, 0.25, 0.05, and 0 mM. The choice of metals for evaluation was based on the results of the UV-Vis studies and included Cu(II)SO4, Fe(II)SO4.7H2O, Fe(III)Cl3.6H2O, and Zn(II)SO4.7H2O. Using a 10 μL multi-channel pipette, 2 μL aliquots of the metal stock solutions were added to the side of wells, avoiding contact with dried 7 on the bottom of the well. […] The highest metal:7 ratio obtained was 4:1 (1000 μM metal to 250 μM 7), which was assumed to be sufficient to see any mitigating effect based on our UV-Vis studies. […] All samples were tested in replicates of 3 wells and were assessed for biofilm production after 24 h incubation by CV staining and quantification.

[2] = UV-Vis metal binding studies; type: physicochemical; conditions: compound:metal ratios of approximately 1:1; preliminary
Gram-positive bacteria = conditions: WO 2010/144686 (7); ref. 34 (18); cited from earlier work
P. aeruginosa growth = test: bacterial growth over time (OD600); type: cell-based, Pseudomonas aeruginosa; conditions: prior to 12 h; at concentrations as low as 10 μM; diminish by 12 h
Method: The effects of compounds 7 and 21 on P. aeruginosa growth were evaluated by monitoring the OD600 as a function of time. Microtiter plates were prepared similar to biofilm dose-response analyses such that final well concentrations upon inoculum addition ranged from 10^x μM where x=3.5, 3, 2.5, 2, 1.5, 1, 0, −1, or −2. Compounds 7 and 21 were tested in replicates of 3 wells, and the OD600 was measured every 1-2 h for 24 h.

Nc1nc2ccccc2[nH]1 [Compound 7, 2-aminobenzimidazole]
RhlR activity [1]: significant reduction | inhibition of Rhl-QS system [1]: able to inhibit | mitigating effect of metals on biofilm inhibitory activity (P. aeruginosa biofilm): none of the tested metals were able to mitigate the biofilm inhibitory activity; also recorded: observed no change in activity | interaction with metals [2]: able to interact with certain metals | biofilm inhibition in Gram-positive bacteria as reported (Gram-positive bacteria): no inhibition of biofilm formation

Cc1cc2nc(N)[nH]c2cc1C [Compound 21, 5,6-Dimethyl-2-aminobenzimidazole]
RhlR activity [1]: significant reduction | inhibition of Rhl-QS system [1]: able to inhibit | growth inhibition versus positive control (P. aeruginosa growth): greater than 20%
